In patent US20200341000A1, “METHOD OF SCREENING COMPOUNDS FOR TREATING CNS DISORDERS” (SAGE THERAPEUTICS, INC., priority 2017, published 2020):
Entries after “also recorded” stand apart in the source; their conditions may differ. Marks after values point to notes of the source that are not given here.

Key:
α1β2γ2 GABAA receptors = molecular target: T1, α1β2γ2 GABAA receptors (Homo sapiens, UniProt P14867+P18507+P47870); assay: Whole-cell patch clamp, potentiation of GABA EC20 currents at recombinant synaptic-type receptors (LTK cells); format: cell-based; conditions: n = 3; for EC50: α1β2γ2, GABA EC20 (2 μM)
T1 construct: expressed in transfected cells
Method: (§1) Cellular electrophysiology was used to measure the pharmacological properties of ALLO, ganaxolone and SGE-516 in heterologous cell systems. Compounds were tested for their ability to affect GABA mediated currents at a submaximal agonist dose (GABA EC20=2 μM).
(§2) LTK cells were stably transfected with the α1β2γ2 subunits of the GABA receptor and CHO cells are transiently transfected with the α4β3γ subunits via the Lipofecatamine method. Cells were passaged at a confluence of about 50-80% and then seeded onto 35 mm sterile culture dishes containing 2 ml culture complete medium without antibiotics or antimycotics. Cells were cultivated at a density that enabled the recording of single cells without visible connections to other cells.
(§3) Whole-cell currents were measured with HEKA EPC-10 amplifiers using PatchMaster software. Bath solution for all experiments contained (in mM): NaCl 137, KCl 4, CaCl2 1.8, MgCl2 1, HEPES 10, D-Glucose 10, pH 7.4 with NaOH. Intracellular (pipette) solution contained (in mM): KCl 130, MgCl2 1, Mg-ATP 5, HEPES 10, EGTA 5, pH 7.2 with KOH. During experiments, cells and solutions were maintained at room temperature (19° C.-30° C.). For manual patchclamp recordings, cell culture dishes were placed on the dish holder of the microscope and continuously perfused (1 ml/min) with bath solution. After formation of a Gigaohm seal between the patch electrode and the cell (pipette resistance range: 2.5 MΩ-6.0MΩ; seal resistance range: >1 GΩ) the cell membrane across the pipette tip was ruptured to assure electrical access to the cell interior (whole-cell patch configuration).
(§4) Cells were voltage-clamped at a holding potential of −80 mV. GABAA receptors were activated by 2 μM GABA and compounds were sequentially applied at increasing concentrations for 30 s prior to a 2 s application of GABA. GABA and compounds were applied to cells via the Dynaflow perfusion system (Cellectricon, Sweden). Test compounds were dissolved in DMSO to form 10 mM stock solution and serially diluted to 0.01, 0.1, 1, and 10 μM in bath solution. […] All concentrations of test compound were tested on each cell. The relative percentage potentiation was defined as the peak amplitude in response to GABA EC20 in the presence of test compound divided by the peak amplitude in response to GABA EC20 alone, multiplied by 100.
(§5) ALLO and ganaxolone are known PAMs of both synaptic and extrasynaptic GABAAR-mediated currents. […] The α1β2γ2 or α4β3δ subunit combinations were chosen as representatives of typical synaptic and extrasynaptic GABAA receptors respectively.

[1] = test system: tonic current in dentate gyms granule cells (DGGCs); assay: Acute (allosteric) modulation of tonic current in DGGCs of hippocampal slices; format: cell-based, mice; conditions: 100 nM, 10 min acute exposure, then 100 μM picrotoxin; mean±SEM
Method: Brain slices were prepared from 3- to 5-week-old male C57 mice. Mice were anesthetized with isoflurane, decapitated, and brains were rapidly removed and submerged in ice-cold cutting solution containing (mM): 126 NaCl, 2.5 KCl, 0.5 CaCl2, 2 MgCl2, 26 NaHCO3, 1.25 NaH2PO4, 10 glucose, 1.5 sodium pyruvate, and 3 kynurenic acid. Coronal 310 μm thick slices were cut with the vibratome VT1000S (Leica Microsystems, St Louis, Mo., USA). The slices were then transferred into incubation chamber filled with prewarmed (31-32° C.) oxygenated artificial cerebro-spinal fluid (ACSF) of the following composition (in mM): 126 NaCl, 2.5 KCl, 2 CaCl2, 2 MgCl2, 26 NaHCO3, 1.25 NaH2PO4, 10 glucose, 1.5 sodium pyruvate, 1 glutamine, 3 kynurenic acid and 0.005 GABA bubbled with 95% O2-5% CO2. Slices were allowed to recover at 32° C. for at least 1 hr before recording. Exogenous GABA was added in an attempt to standardize ambient GABA in the slice and provide an agonist source for newly inserted extrasynaptic GABAARs. […]
Whole-cell currents were recorded from the dentate gyms granule cells (DGGCs) in 310-μm-thick coronal hippocampal slices. […] A 5 min period for stabilization after obtaining the whole-cell recording conformation (holding potential of −60 mV) was allowed before currents were recorded using an Axopatch 200B amplifier (Molecular Devices), low-pass filtered at 2 kHz, digitized at 20 kHz (Digidata 1440A; Molecular Devices), and stored for offline analysis.
For tonic current measurements, an all-points histogram was plotted for a 10 s period before and during 100 μM picrotoxin application, once the response reached a plateau level. […] Series resistance and whole-cell capacitance were continually monitored and compensated throughout the course of the experiment. […] Spontaneous inhibitory post-synaptic currents (sIPSCs) were analyzed using the mini-analysis software (version 5.6.4; Synaptosoft, Decatur, Ga.). […] Only recordings with a minimum of 200 events fitting these criteria were analyzed. sIPSCs amplitude, and frequency from each experimental condition was pooled and expressed as mean±SEM. […]

[2] = test system: tonic current in dentate gyms granule cells (DGGCs); assay: Sustained (metabotropic) enhancement of tonic current in DGGCs after 15 min exposure and washout; format: cell-based, mice
Method: (§6) Brain slices were prepared from 3- to 5-week-old male C57 mice. Mice were anesthetized with isoflurane, decapitated, and brains were rapidly removed and submerged in ice-cold cutting solution containing (mM): 126 NaCl, 2.5 KCl, 0.5 CaCl2, 2 MgCl2, 26 NaHCO3, 1.25 NaH2PO4, 10 glucose, 1.5 sodium pyruvate, and 3 kynurenic acid. Coronal 310 μm thick slices were cut with the vibratome VT1000S (Leica Microsystems, St Louis, Mo., USA). The slices were then transferred into incubation chamber filled with prewarmed (31-32° C.) oxygenated artificial cerebro-spinal fluid (ACSF) of the following composition (in mM): 126 NaCl, 2.5 KCl, 2 CaCl2, 2 MgCl2, 26 NaHCO3, 1.25 NaH2PO4, 10 glucose, 1.5 sodium pyruvate, 1 glutamine, 3 kynurenic acid and 0.005 GABA bubbled with 95% O2-5% CO2. Slices were allowed to recover at 32° C. for at least 1 hr before recording. Exogenous GABA was added in an attempt to standardize ambient GABA in the slice and provide an agonist source for newly inserted extrasynaptic GABAARs.
(§7) After recovery, a single slice was transferred to a submerged, dual perfusion recording chamber (Warner Instruments, Hamden, Conn., USA) on the stage of an upright microscope (Nikon FN-1) with a 40× water immersion objective equipped with DIC/IR optics. Slices were maintained at 32° C. and gravity-superfused with ACSF solution throughout experimentation and perfused at rate of 2 ml/min with oxygenated (O2/CO2 95/5%) ACSF.
(§8) Whole-cell currents were recorded from the dentate gyms granule cells (DGGCs) in 310-μm-thick coronal hippocampal slices. Patch pipettes (5-7MΩ) were pulled from borosilicate glass (World Precision Instruments) and filled with intracellular solution of the composition (in mM) as follows: 140 CsCl, 1 MgCl2, 0.1 EGTA, 10 HEPES, 2 Mg-ATP, 4 NaCl and 0.3 Na-GTP (pH=7.2 with CsOH). A 5 min period for stabilization after obtaining the whole-cell recording conformation (holding potential of −60 mV) was allowed before currents were recorded using an Axopatch 200B amplifier (Molecular Devices), low-pass filtered at 2 kHz, digitized at 20 kHz (Digidata 1440A; Molecular Devices), and stored for offline analysis.
(§9) For tonic current measurements, an all-points histogram was plotted for a 10 s period before and during 100 μM picrotoxin application, once the response reached a plateau level. Recordings with unstable baselines were discarded. Fitting the histogram with a Gaussian distribution gave the mean baseline current amplitude and the difference between the amplitudes before and during picrotoxin was considered to be the tonic current. The negative section of the all-points histogram which corresponds to the inward IPSCs was not fitted with a Gaussian distribution (Kretschmannova et al., 2013; Nusser and Mody, 2002). Series resistance and whole-cell capacitance were continually monitored and compensated throughout the course of the experiment. Recordings were eliminated from data analysis if series resistance increased by >20%. Spontaneous inhibitory post-synaptic currents (sIPSCs) were analyzed using the mini-analysis software (version 5.6.4; Synaptosoft, Decatur, Ga.). Minimum threshold detection was set to 3 times the value of baseline noise signal. To assess sIPSC kinetics, the recording trace was visually inspected and only events with a stable baseline, sharp rising phase, and single peak were used to negate artifacts due to event summation. Only recordings with a minimum of 200 events fitting these criteria were analyzed. sIPSCs amplitude, and frequency from each experimental condition was pooled and expressed as mean±SEM. To measure sIPSC decay, 100 consecutive events were averaged and the decay was fitted to a double exponential and the weighted decay constant (tw) was determined. Statistical analysis was performed by using Student t-test (paired and unpaired where appropriate), where p<0.05 is considered significant.

α4β3δ GABAA receptors = molecular target: T2, α4β3δ GABAA receptors (Homo sapiens, UniProt O14764+P28472+P48169); assay: Whole-cell patch clamp, potentiation of GABA EC20 currents at recombinant extrasynaptic-type receptors (CHO cells); format: cell-based
T2 construct: expressed in transfected cells; host or cells: CHO cells (transient transfection, Lipofectamine)
Method: as §1, §2, §3, §4, §5

[3] = test system: sIPSCs in dentate gyms granule cells (DGGCs); assay: Acute (allosteric) modulation of sIPSCs in DGGCs of hippocampal slices; format: cell-based, mice
Method: as §6, §7, §8, §9

[4] = test system: GABA receptor trafficking; assay: GABA receptor trafficking measured by GABAergic current density (FIG. 14); format: cell-based; conditions: measured by the GABAergic current density
Text: As shown in above examples, not all neurosteroids can modulate GABA receptor trafficking.

[5] = test system: GT1-7 cells (co-express mPRα and GABAARs), β3 S408/9 phosphorylation; assay: Immunoblot of β3 S408/9 phosphorylation in GT1-7 cells; format: cell-based; conditions: 100 nM, 15 min; n=6
Method: GT1-7 cells that co-express mPRα and GABAARs were used to measure the level of phosphorylation at S408/9 position of β3 subunit. Quantitative PCR analysis indicated the enrichment of the mPRα mRNA in GT1-7 cells (FIG. 15A upper, figure taken from Thomas and Pang 2012). Expression of mPRα was confirmed using western blotting. 10 and 15 μg of SDS-soluble extracts from GT1-7 cells were immunoblotted with an mPRα specific antibody (FIG. 15A lower).
GT1-7 cells were treated with 100 nM AllO or P4 for 15 min and immunoblotted with antibodies specifically recognizing β3, actin, and […] β3 subunit (pS408/9). The ratio of pS408/9 β3 subunit immunoreactivity were then normalized to levels seen in vehicle treated to controls, n=6.

[6] = test system: GABAA receptor β3 subunit S408/9 phosphorylation; assay: Immunoblot of β3 S408/9 phosphorylation in hippocampal slices; format: cell-based, mice; conditions: 100 nM
Method: Hippocampi were dissected out of acute slices from 8 to 12 week old C57/B16 mice and lysed with phosphate buffer including: 20 mM Tris-HCl, 150 mM NaCl, 5 mM EDTA, 10 mM NaF, 2 mM Na3VO4, 10 mM pyrophosphate, 0.1% SDS and 1% Triton after drug treatment. The β3 subunit was isolated using immunoprecipitation with β3 antibodies, after correction for protein content and the specific activity of labeling. Results were attained by SDS/PAGE followed by autoradiography (Abramian et al., 2010). For biotinylation experiments hippocampi were dissected out of acute slices from 8 to 12 week old C57/B16 mice and incubated in artificial cerebrospinal fluid (ACSF) described above at 30° C. for 1 h for recovery before experimentation. Slices were then placed on ice and incubated for 30 min with 1 mg/mL NHS-SS-biotin (Pierce). Excess biotin was removed by a 50 mM glycine quenching buffer, followed by washing of slices three times in ice-cold ACSF. The tissue was snap frozen on dry ice for 5 min, thawed at 4° C. and lysed. The lysates were solubilized with 2% Triton at 4° C. on a rotating wheel for 1 h. The insoluble material was removed by centrifugation, and 350-500 μg of protein lysate were incubated with NeutrAvidin beads (Pierce) for 18-24 h at 4° C. Bound material was eluted with sample buffer and subjected to SDS/PAGE and then immunoblotted with the indicated antibodies. Blots were then quantified using the CCD-based ChemiDoc XRS ? system. Antibodies against the β3 subunit and the phospho-β3 antibody were generated and verified by the laboratory of S.J.M. (Vien et al., 2015).
To produce antibodies specific for phosphorylated S443, rabbits were injected with a synthetic peptide corresponding to residues […] of the murine α4 subunit in which the serine residue corresponding to S443 was chemically phosphorylated; […]. Hippocampal slices were treated with vehicle (Con), or SGE-516 for 20 min. Slices were immunoblotted with pS408/9, β3, or actin antibodies. The ratio of pS408/9/β3 immunoreactivity was then normalized to control slices (100%=the line).
Hippocampal slices were treated with 100 nM ALLO or P4 (progesterone), and S408/9 phosphorylation was then determined as detailed above, n=4 slices (FIG. 18D). Hippocampal slices were treated with 100 nM ORG (FIG. 18E). S408/9 phosphorylation was examined using immunoblotting.

[7] = 100 nM acute exposure, n = 5 to 7 neurons

T1 sequence (P14867 28-456): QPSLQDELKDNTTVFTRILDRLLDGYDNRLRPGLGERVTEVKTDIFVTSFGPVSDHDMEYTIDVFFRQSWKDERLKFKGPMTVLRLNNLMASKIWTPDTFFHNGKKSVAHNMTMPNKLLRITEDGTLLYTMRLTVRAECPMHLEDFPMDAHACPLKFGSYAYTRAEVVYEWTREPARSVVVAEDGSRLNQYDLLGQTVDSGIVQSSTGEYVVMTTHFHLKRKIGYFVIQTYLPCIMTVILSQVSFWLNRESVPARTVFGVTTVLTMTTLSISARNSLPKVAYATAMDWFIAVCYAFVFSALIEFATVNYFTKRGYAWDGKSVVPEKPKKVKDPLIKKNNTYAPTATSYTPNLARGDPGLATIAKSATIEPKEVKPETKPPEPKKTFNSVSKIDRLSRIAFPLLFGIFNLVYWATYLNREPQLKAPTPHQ
T1 sequence (P47870 25-512 limits assumed): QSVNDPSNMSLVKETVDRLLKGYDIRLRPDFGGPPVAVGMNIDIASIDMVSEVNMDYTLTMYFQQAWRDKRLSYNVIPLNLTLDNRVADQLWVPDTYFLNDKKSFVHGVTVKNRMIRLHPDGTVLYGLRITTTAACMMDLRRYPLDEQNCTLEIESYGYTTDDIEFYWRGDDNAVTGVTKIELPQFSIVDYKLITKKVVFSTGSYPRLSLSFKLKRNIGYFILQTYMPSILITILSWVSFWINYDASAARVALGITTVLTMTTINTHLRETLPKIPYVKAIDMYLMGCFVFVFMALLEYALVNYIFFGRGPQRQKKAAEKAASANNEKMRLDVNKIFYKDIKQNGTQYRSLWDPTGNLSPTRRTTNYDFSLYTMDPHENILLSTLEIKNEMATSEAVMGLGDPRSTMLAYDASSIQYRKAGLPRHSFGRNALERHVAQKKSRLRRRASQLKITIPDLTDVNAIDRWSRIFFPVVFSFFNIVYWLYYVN
T1 sequence (P18507 40-475): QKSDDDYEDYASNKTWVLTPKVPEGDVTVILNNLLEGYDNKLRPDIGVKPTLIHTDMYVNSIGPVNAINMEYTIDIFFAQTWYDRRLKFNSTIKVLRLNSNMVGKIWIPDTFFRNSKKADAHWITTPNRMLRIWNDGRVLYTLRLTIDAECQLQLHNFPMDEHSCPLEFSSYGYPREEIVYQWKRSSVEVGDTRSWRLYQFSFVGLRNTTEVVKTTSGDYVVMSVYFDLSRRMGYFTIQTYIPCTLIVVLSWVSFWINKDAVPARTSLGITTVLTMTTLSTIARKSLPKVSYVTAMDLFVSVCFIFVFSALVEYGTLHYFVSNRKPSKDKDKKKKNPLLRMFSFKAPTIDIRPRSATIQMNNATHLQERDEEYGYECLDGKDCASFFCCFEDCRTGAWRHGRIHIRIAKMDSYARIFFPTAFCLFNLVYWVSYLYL
T2 sequence (P48169 36-554): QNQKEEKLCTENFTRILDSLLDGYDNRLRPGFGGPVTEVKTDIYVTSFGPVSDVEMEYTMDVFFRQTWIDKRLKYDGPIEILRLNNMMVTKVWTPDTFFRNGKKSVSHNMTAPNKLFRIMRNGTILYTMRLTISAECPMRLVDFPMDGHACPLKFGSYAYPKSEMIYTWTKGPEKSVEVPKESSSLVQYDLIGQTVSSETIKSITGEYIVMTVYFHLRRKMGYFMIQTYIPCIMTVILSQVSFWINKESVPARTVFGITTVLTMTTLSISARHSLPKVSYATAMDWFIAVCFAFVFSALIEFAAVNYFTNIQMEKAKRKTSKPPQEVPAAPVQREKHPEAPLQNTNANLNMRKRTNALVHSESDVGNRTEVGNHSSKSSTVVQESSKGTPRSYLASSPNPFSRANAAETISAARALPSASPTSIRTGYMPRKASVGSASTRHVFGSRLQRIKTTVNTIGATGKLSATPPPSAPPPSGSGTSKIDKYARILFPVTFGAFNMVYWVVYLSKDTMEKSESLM
T2 sequence (P28472 26-473): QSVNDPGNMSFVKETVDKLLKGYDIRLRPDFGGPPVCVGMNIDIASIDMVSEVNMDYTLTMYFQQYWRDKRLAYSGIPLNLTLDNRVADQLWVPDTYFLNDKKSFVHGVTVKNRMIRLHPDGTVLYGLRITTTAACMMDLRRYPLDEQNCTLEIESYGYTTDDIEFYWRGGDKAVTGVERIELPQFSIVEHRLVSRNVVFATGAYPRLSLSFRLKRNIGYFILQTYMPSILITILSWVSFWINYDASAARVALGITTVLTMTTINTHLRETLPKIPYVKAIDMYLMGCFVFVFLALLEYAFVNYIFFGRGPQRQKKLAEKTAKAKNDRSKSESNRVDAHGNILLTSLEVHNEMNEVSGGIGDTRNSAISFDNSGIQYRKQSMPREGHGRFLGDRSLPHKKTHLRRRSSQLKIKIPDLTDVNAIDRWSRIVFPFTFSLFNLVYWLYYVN
T2 sequence (O14764 25-452): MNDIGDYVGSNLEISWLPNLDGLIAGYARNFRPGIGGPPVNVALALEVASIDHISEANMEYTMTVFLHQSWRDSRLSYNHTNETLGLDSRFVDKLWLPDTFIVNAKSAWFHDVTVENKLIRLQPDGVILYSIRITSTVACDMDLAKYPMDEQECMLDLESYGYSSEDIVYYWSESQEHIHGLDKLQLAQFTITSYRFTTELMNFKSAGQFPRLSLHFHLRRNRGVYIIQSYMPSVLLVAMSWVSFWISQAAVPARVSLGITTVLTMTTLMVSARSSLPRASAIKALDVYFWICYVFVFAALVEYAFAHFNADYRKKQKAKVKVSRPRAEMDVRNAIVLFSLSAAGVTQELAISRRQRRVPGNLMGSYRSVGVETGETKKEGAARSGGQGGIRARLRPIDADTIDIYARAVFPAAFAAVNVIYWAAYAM

Row | Compound | EC50 (α1β2γ2 GABAA receptors; EC50, potentiation of GABA current) | EC50 (α1β2γ2 GABAA receptors; pEC50 ± S.E.M.) | Emax ± S.E.M., α1β2γ2 (α1β2γ2 GABAA receptors; relative percentage potentiation of GABA EC20 peak current) | tonic current during acute exposure [1] | tonic current after exposure and washout ([2]; 1 μM, 15 min incubation, 30-60 min wash, vehicle 43.9±5.7 pA) | change of tonic current versus vehicle ([2]; 1 μM, 15 min incubation, wash) | EC50 (α4β3δ GABAA receptors) | Emax (α4β3δ GABAA receptors; CHO, relative percentage potentiation of GABA EC20 peak current, n = 3, read-out: Emax ± S.E.M., α4β3δ) | Emax ± S.E.M., α4β3δ (α4β3δ GABAA receptors; relative percentage potentiation of GABA EC20 peak current, n = 3) | mean sIPSC amplitude before versus during exposure ([3]; 100 nM) | mean sIPSC decay time in the presence of compound ([3]; 100 nM) | sIPSC Amplitude [3, 7] | sIPSC Decay [3, 7] | sIPSC Frequency [3, 7] | modulation of GABA receptor trafficking [4] | S408/9 phosphorylation (pS408/9/β3) in GT1-7 cells [5] | S408/9 phosphorylation in hippocampal slices [6] | amplitude and density of GABAergic tonic current at varying doses ([2]; protocol as in FIG. 3, n=6-8 cells)
1 | CC(=O)[C@H]1CC[C@H]2[C@@H]3CC[C@H]4C[C@](C)(O)CC[C@]4(C)[C@H]3CC[C@]12C [Ganaxolone] | 256 nM | 158 nM | 400 ± 27% | 78.8±23.2 pA | 57.4±6.3 pA | did not significantly alter; also recorded: No significant change | 94 nM | 225% | 225 ± 8% | no significant difference | significantly increased | 55.1 ± 0.7 pA | 23.6 ± 2.9^c ms | 5.6 ± 1.7 Hz | did not modulate GABA receptor trafficking |  |  | 
2 | CC(=O)[C@H]1CC[C@H]2[C@@H]3CCC4=CC(=O)CC[C@]4(C)[C@H]3CC[C@]12C [P4, Progesterone] |  |  |  |  |  |  |  |  |  |  |  |  |  |  |  | increase | regulated | dosage-dependent effect; also recorded: dosage dependent effect
